Reference: the NIST ThermoML archive (doi:10.1016/j.tca.2004.11.015)

Conditions: 101.33 kPa, Liquid, Vibrating tube method

CO [methanol]
Conditions | mass density [kg/m3]
283.15 K | 800.67
288.15 K | 795.99
293.15 K | 791.29
298.15 K | 786.58
303.15 K | 781.86
308.15 K | 777.1
313.15 K | 772.32
318.15 K | 767.52
323.15 K | 762.67
328.15 K | 757.77
333.15 K | 752.83

NCCO [2-aminoethan-1-ol]
Conditions | mass density [kg/m3]
281.15 K | 1025.55
283.15 K | 1023.99
285.15 K | 1022.42
287.15 K | 1020.84
289.15 K | 1019.26
291.15 K | 1017.68
293.15 K | 1016.1
295.15 K | 1014.52
297.15 K | 1012.94
299.15 K | 1011.35
301.15 K | 1009.76
303.15 K | 1008.17
305.15 K | 1006.58
307.15 K | 1004.99
309.15 K | 1003.4
311.15 K | 1001.8
313.15 K | 1000.21
315.15 K | 998.6
317.15 K | 997
319.15 K | 995.4
321.15 K | 993.79
323.15 K | 992.19
325.15 K | 990.58
327.15 K | 988.96
329.15 K | 987.34
331.15 K | 985.72
333.15 K | 984.1
335.15 K | 982.48
337.15 K | 980.85
339.15 K | 979.21
341.15 K | 977.58
343.15 K | 975.94
345.15 K | 974.3
347.15 K | 972.65
349.15 K | 970.99
351.15 K | 969.34
353.15 K | 967.68
